This note sets out measurements from US20250376461A1, “INDAZOLE DERIVATIVES FOR TREATING TRPM3-MEDIATED DISORDERS” (Katholieke Universiteit Leuven, priority 2022, published 2025).

Bounds are passed on as bounds.

T1 sequence (J9SQF3 1-1709 isoform J9SQF3-12): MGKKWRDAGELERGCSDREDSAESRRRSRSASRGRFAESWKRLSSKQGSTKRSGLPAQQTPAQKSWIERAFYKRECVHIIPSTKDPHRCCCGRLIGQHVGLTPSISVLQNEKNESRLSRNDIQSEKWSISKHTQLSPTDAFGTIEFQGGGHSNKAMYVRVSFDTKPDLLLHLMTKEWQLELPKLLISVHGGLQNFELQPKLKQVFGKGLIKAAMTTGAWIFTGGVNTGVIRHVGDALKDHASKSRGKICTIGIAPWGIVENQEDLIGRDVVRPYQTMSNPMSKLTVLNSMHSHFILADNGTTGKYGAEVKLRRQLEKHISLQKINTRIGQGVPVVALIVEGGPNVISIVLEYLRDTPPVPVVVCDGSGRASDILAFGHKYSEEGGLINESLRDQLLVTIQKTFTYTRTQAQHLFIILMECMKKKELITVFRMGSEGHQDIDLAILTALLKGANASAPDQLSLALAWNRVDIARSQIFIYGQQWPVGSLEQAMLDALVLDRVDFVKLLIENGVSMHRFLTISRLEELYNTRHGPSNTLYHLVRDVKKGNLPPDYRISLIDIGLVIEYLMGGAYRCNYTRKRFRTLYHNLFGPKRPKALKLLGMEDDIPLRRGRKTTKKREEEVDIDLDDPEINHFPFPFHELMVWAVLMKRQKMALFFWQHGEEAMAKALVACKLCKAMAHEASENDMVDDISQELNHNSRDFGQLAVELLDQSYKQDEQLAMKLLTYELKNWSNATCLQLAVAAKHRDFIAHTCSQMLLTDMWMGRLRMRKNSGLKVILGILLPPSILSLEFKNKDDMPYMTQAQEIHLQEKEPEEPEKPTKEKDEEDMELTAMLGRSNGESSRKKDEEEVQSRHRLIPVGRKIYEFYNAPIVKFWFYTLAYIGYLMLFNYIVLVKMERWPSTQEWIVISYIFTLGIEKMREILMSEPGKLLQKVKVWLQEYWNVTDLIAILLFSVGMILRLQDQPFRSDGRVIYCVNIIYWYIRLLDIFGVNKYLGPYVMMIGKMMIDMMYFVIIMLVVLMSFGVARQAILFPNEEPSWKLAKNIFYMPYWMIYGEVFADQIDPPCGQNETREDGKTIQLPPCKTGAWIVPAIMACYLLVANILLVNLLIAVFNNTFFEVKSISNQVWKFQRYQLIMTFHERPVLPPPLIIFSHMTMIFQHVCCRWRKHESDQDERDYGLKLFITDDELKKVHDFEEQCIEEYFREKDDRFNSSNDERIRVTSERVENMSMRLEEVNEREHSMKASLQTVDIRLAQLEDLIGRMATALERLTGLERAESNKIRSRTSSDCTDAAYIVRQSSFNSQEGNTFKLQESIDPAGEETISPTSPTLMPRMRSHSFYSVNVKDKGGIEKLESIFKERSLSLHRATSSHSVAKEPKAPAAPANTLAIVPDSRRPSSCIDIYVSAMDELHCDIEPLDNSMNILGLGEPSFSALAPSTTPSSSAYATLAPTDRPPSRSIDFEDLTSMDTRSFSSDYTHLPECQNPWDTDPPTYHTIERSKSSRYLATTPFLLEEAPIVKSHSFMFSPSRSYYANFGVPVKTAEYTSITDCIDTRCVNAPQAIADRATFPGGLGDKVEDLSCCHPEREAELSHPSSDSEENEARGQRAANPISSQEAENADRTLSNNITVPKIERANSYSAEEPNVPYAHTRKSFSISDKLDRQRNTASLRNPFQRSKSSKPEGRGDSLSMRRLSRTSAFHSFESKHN

This test concerns the target T1, mouse TRPM3α2 (mTRPM3) ion channel (Mus musculus, UniProt J9SQF3).
T1 construct: expressed in transfected cells; host or cells: flip-in HEK293
In words: TRPM3 ion channel driven Ca2+ uptake, Fluo-4 AM assay, mTRPM3alpha2 overexpressing flip-in HEK293 cells stimulated with pregnenolone sulfate (50 μM). As to conditions: mTRPM3 overexpressing HEK293 cells stimulated with pregnenolone sulfate (50 μM), activity ranges A, B, C. It counts as cell-based. The gist of the method: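 Flip-in HEK293 cells overexpressing mTRPM3α2, loaded with Fluo-4 AM, added at ±2000 cells/well to plates holding compound plus 50 μM pregnenolone sulfate in Ca2+-containing Krebs buffer. Fluorescence (ex 485/em 535 nm) read immediately. Percent inhibition normalised between vehicle and positive-control inhibitor; IC50 derived.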
As to `Cn1nc2ccc(OCc3cccnc3C(F)(F)F)cc2c1C(=O)NC1(CCO)CCC1` [Cpd 065, N-[1-(2-hydroxyethyl)cyclobutyl]-2-methyl-5-{[2-(trifluoromethyl)pyridin-3-yl]methoxy}-2H-indazole-3-carboxamide], the IC50 is 1 to 20 µM.
For `Cn1nc2ccc(OCC3(C#N)CC3)cc2c1C(=O)N[C@@H](CO)C(N)=O` [Cpd 148, (2S)-2-({5-[(1-cyanocyclopropyl)methoxy]-2-methyl-2H-indazol-3-yl}formamido)-3-hydroxypropanamide], the concentration for half-maximal inhibition (IC50) is 1 to 20 µM.
`Cn1nc2ccc(OCc3cccnc3C(F)(F)F)cc2c1C(=O)NC1CCN(CC(F)(F)F)C1` (stereo not drawn) [Cpd 077, 2-methyl-N-[1-(2,2,2-trifluoroethyl)pyrrolidin-3-yl]-5-{[2-(trifluoromethyl)pyridin-3-yl]methoxy}-2H-indazole-3-carboxamide]: the half-maximal inhibitory concentration (IC50) is 1 to 20 µM.
Take `CN1CCC(NC(=O)c2c3cc(OCc4cccnc4C(F)(F)F)ccc3nn2C)C1` (stereo not drawn) [Cpd 040, 2-methyl-N-(1-methylpyrrolidin-3-yl)-5-{[2-(trifluoromethyl)pyridin-3-yl]methoxy}-2H-indazole-3-carboxamide]: the 50% inhibitory concentration (IC50) lay in the range of 1 to 20 µM.
Compound `CN(C)C(=O)C1(NC(=O)c2c3cc(OCc4cccnc4C(F)(F)F)ccc3nn2C)CCOC1` (single isomer, unassigned) [Cpd 186 - En2] returned an IC50 of 1 to 20 µM.
Turning to `Cn1nc2ccc(OCc3cccnc3C(F)(F)F)cc2c1C(=O)NCCN1CCOC1=O` [Cpd 073, 2-methyl-N-[2-(2-oxo-1,3-oxazolidin-3-yl)ethyl]-5-{[2-(trifluoromethyl)pyridin-3-yl]methoxy}-2H-indazole-3-carboxamide], the concentration for half-maximal inhibition (IC50) was 1 to 20 µM.
In the case of `Cn1nc2ccc(OCC3CCCC3)cc2c1C(=O)NC(C)(C)C(N)=O` [Cpd 145, 2-{[5-(cyclopentylmethoxy)-2-methyl-2H-indazol-3-yl]formamido}-2-methylpropanamide] it was 1 to 20 µM; in that of `CNC(=O)C(C)(CO)NC(=O)c1c2cc(OCc3scnc3C)ccc2nn1C` (single isomer, unassigned) [Cpd 185 - En1, 3-hydroxy-N,2-dimethyl-2-({2-methyl-5-[(4-methyl-1,3-thiazol-5-yl)methoxy]-2H-indazol-3-yl}formamido)propanamide], 1 to 20 µM; in that of `Cn1nc2ccc(OCC3CCOCC3)cc2c1C(=O)NC(C)(CO)C(N)=O` (single isomer, unassigned) [Cpd 158 - En2], above 20 µM.
`Cc1ncsc1COc1ccc2nn(C)c(C(=O)NC3CCOCC3)c2c1` [Cpd 115, 2-methyl-5-[(4-methyl-1,3-thiazol-5-yl)methoxy]-N-(oxan-4-yl)-2H-indazole-3-carboxamide] registered an IC50 of 1 to 20 µM.
In the case of `Cn1nc2ccc(OCc3ccccn3)cc2c1C(=O)NC(CO)Cc1ccccn1` (single isomer, unassigned) [Cpd 252 - En1] it was above 20 µM; in that of `CN(C)CC(C)(CC(F)F)NC(=O)c1c2cc(OCc3ccccn3)ccc2nn1C` (single isomer, unassigned) [Cpd 229 - En1, N-[1-(dimethylamino)-4,4-difluoro-2-methylbutan-2-yl]-2-methyl-5-[(pyridin-2-yl)methoxy]-2H-indazole-3-carboxamide], 1 to 20 µM; in that of `Cn1nc2ccc(OCC3CCCC3)cc2c1C(=O)NC(C)(CO)CO` [Cpd 144, 5-(cyclopentylmethoxy)-N-(1,3-dihydroxy-2-methylpropan-2-yl)-2-methyl-2H-indazole-3-carboxamide], above 20 µM.
In the case of `CN(C)C(=O)C(C)(CO)NC(=O)c1c2cc(OCc3cccnc3C(F)(F)F)ccc2nn1C` (single isomer, unassigned) [Cpd 193 - En2, 3-hydroxy-N,N,2-trimethyl-2-[(2-methyl-5-{[2-(trifluoromethyl)pyridin-3-yl]methoxy}-2H-indazol-3-yl)formamido]propanamide], the IC50 was above 20 µM.
The result for `CC(=O)C(C)(CO)NC(=O)c1c2cc(OCc3ccccn3)ccc2nn1C` (single isomer, unassigned) [Cpd 232 - En1] reads 1 to 20 µM; that for `Cn1nc2ccc(OCc3ccccn3)cc2c1C(=O)NC(CO)C1CCOCC1` (single isomer, unassigned) [Cpd 241 - En2], above 20 µM.
The compound `Cc1ncc(COc2ccc3nn(C)c(C(=O)NC(C)(CO)C(N)=O)c3c2)o1` (single isomer, unassigned) [Cpd 179 - En1] returned a half-inhibitory concentration (IC50) of 1 to 20 µM.
For the compound `Cn1nc2ccc(OCc3cccnc3C(F)(F)F)cc2c1C(=O)NC(C)(CO)CC(F)F` (single isomer, unassigned) [Cpd 202 - En1], the half-inhibitory concentration (IC50) is below 1 µM.
The compound `Cc1ncsc1COc1ccc2nn(C)c(C(=O)NC3(CO)CCNC3=O)c2c1` (single isomer, unassigned) [Cpd 163 - En1, N-[3-(hydroxymethyl)-2-oxopyrrolidin-3-yl]-2-methyl-5-[(4-methyl-1,3-thiazol-5-yl)methoxy]-2H-indazole-3-carboxamide] came in with a half-inhibitory concentration (IC50) below 1 µM.
In the case of `Cc1ncsc1COc1ccc2nn(C)c(C(=O)NC3CNCCC3(F)F)c2c1` (single isomer, unassigned) [Cpd 211 - En1, N-(4,4-difluoropiperidin-3-yl)-2-methyl-5-[(4-methyl-1,3-thiazol-5-yl)methoxy]-2H-indazole-3-carboxamide], the IC50 was in the range of 1 to 20 µM.
Turning to `COCC(C)(CO)NC(=O)c1c2cc(OCc3ccccn3)ccc2nn1C` (single isomer, unassigned) [Cpd 258 - En1], the IC50 fell in the range of 1 to 20 µM.
The result for `Cc1ncc(COc2ccc3nn(C)c(C(=O)N[C@@H](CO)C(N)=O)c3c2)s1` [Cpd 126, (2S)-3-hydroxy-2-({2-methyl-5-[(2-methyl-1,3-thiazol-5-yl)methoxy]-2H-indazol-3-yl}formamido)propanamide] reads 1 to 20 µM.
`Cn1nc2ccc(OCC3CCC3)cc2c1C(=O)NC(C)(CO)C(N)=O` (single isomer, unassigned) [Cpd 173 - En2] gave an IC50 of 1 to 20 µM.
Compound `Cn1nc2ccc(OCc3ccccc3)cc2c1C(=O)NCc1cccc(O)n1` [Cpd 025, 5-(benzyloxy)-N-[(6-hydroxypyridin-2-yl)methyl]-2-methyl-2H-indazole-3-carboxamide] came in with an IC50 below 1 µM.
With `Cc1ncsc1COc1ccc2nn(C)c(C(=O)NC3(CO)COC3)c2c1` [Cpd 109, N-[3-(hydroxymethyl)oxetan-3-yl]-2-methyl-5-[(4-methyl-1,3-thiazol-5-yl)methoxy]-2H-indazole-3-carboxamide], the IC50 was 1 to 20 µM.
Consider `CN1CCC(NC(=O)c2c3cc(OCc4ccnn4C)ccc3nn2C)C1` (stereo not drawn) [Cpd 071, 2-methyl-5-[(1-methyl-1H-pyrazol-5-yl)methoxy]-N-(1-methylpyrrolidin-3-yl)-2H-indazole-3-carboxamide], for which the IC50 was 1 to 20 µM.
On to `Cc1ncsc1COc1ccc2nn(C)c(C(=O)NC3(CO)CCOCC3)c2c1` [Cpd 001, N-[4-(hydroxymethyl)oxan-4-yl]-2-methyl-5-[(4-methyl-1,3-thiazol-5-yl)methoxy]-2H-indazole-3-carboxamide], for which the concentration for half-maximal inhibition (IC50) was in the range of 1 to 20 µM.
`Cc1ncc(COc2ccc3nn(C)c(C(=O)N[C@H](C(N)=O)[C@@H](C)O)c3c2)o1` [Cpd 142, (2S,3R)-3-hydroxy-2-({2-methyl-5-[(2-methyl-1,3-oxazol-5-yl)methoxy]-2H-indazol-3-yl}formamido)butanamide] had a half-inhibitory concentration (IC50) of 1 to 20 µM.
`Cn1nc2ccc(OCc3ccccn3)cc2c1C(=O)NCCO` [Cpd 205, N-(2-hydroxyethyl)-2-methyl-5-[(pyridin-2-yl)methoxy]-2H-indazole-3-carboxamide] displayed a concentration for half-maximal inhibition (IC50) above 20 µM.
The result for `Cn1nc2ccc(OCc3cccnc3)cc2c1C(=O)NC1(CO)CCNC1=O` (single isomer, unassigned) [Cpd 180 - En2] reads 1 to 20 µM; that for `Cn1nccc1COc1ccc2nn(C)c(C(=O)NCc3cccc(O)n3)c2c1` [Cpd 035, N-[(6-hydroxypyridin-2-yl)methyl]-2-methyl-5-[(1-methyl-1H-pyrazol-5-yl)methoxy]-2H-indazole-3-carboxamide], 1 to 20 µM; that for `Cn1nc2ccc(OCc3ccccc3C(F)F)cc2c1C(=O)NC(C)(CO)C(N)=O` (single isomer, unassigned) [Cpd 191 - En2], below 1 µM.
In the case of `Cn1nc2ccc(OCc3ccccn3)cc2c1C(=O)NC(CO)Cc1ncccn1` (single isomer, unassigned) [Cpd 243 - En2] it was above 20 µM.
The result for `Cn1nc2ccc(OCc3ccccn3)cc2c1C(=O)NC1CCNCC1(F)F` (single isomer, unassigned) [Cpd 128 - En2] reads above 20 µM; that for `Cc1ncsc1COc1ccc2nn(C)c(C(=O)NC3(C(N)=O)CCOCC3)c2c1` [Cpd 107, N-(4-carbamoyloxan-4-yl)-2-methyl-5-[(4-methyl-1,3-thiazol-5-yl)methoxy]-2H-indazole-3-carboxamide], 1 to 20 µM; that for `Cn1nc2ccc(OCc3cccnc3C(F)(F)F)cc2c1C(=O)NC(C)(CO)CO` [Cpd 016, N-(1,3-dihydroxy-2-methylpropan-2-yl)-2-methyl-5-{[2-(trifluoromethyl)pyridin-3-yl]methoxy}-2H-indazole-3-carboxamide], below 1 µM.
Compound `Cn1nc2ccc(OCc3cccnc3C(F)(F)F)cc2c1C(=O)NCC(C)(C)CO` [Cpd 019, N-(3-hydroxy-2,2-dimethylpropyl)-2-methyl-5-{[2-(trifluoromethyl)pyridin-3-yl]methoxy}-2H-indazole-3-carboxamide] yielded an IC50 above 20 µM.
The result for `Cn1nc2ccc(OCc3ccccc3)cc2c1C(=O)NC1CCN(CCO)C1=O` (stereo not drawn) [Cpd 038, 5-(benzyloxy)-N-[1-(2-hydroxyethyl)-2-oxopyrrolidin-3-yl]-2-methyl-2H-indazole-3-carboxamide] reads 1 to 20 µM; that for `Cn1nc2ccc(OCc3ccccc3C(F)F)cc2c1C(=O)NC1(CO)CCNC1=O` (single isomer, unassigned) [Cpd 176 - En1], below 1 µM.
